Drawing on ChEMBL document CHEMBL1151068, “Rollimembrin, a novel acetogenin inhibitor of mammalian mitochondrial complex I” (Bioorg Med Chem Lett, 1997), this text covers IC50 for three compounds.

SMILES strings stand for the structures.

The target in the test is Mitochondrial complex I; NADH oxidoreductase (Bos taurus, UniProt P25708+P52505). The test can be described thus: Concentration required for the inhibition of NADH oxidase in submitochondrial particles from beef heart. It counts as protein-complex assay.
Sequence of Mitochondrial complex I; NADH oxidoreductase (P25708 21-464 limits assumed, other chains not shown): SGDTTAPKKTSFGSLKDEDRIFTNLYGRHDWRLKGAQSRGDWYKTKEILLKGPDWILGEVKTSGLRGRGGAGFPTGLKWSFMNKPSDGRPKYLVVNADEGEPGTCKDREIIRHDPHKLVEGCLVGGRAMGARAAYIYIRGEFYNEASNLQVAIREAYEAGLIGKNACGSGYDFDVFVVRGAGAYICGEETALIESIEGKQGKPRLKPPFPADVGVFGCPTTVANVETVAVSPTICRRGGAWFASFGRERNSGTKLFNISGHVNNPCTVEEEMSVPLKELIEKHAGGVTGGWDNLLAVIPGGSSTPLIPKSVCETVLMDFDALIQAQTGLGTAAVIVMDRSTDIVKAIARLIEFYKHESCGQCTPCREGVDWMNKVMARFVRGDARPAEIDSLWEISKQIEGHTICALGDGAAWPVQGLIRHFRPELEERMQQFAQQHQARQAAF
In turn, `CCCCCCCCCC[C@H](O)[C@H]1CC[C@@H]([C@@H]2CC[C@H]([C@H](O)CCCCCCCCCCCCC3=C[C@@H](C)OC3=O)O2)O1` displayed a half-maximal inhibitory concentration (IC50) of 580 pM.

In turn, `CCCCCCCCCC[C@H](O)[C@H]1CC[C@@H]([C@@H]2CC[C@H]([C@H](O)CCCCCCCCCC[C@@H](O)CC3=C[C@@H](C)OC3=O)O2)O1` gave an IC50 of 580 pM.

Turning to `CCCCCCCCCC[C@H](O)[C@H]1CC[C@@H]([C@@H]2CC[C@H]([C@H](O)CCCCCCCC[C@@H](O)CC3=C[C@@H](C)OC3=O)O2)O1`, the concentration for half-maximal inhibition (IC50) is 330 pM.
